# According to publication PMC7803973, “Structural basis of malaria parasite phenylalanine tRNA-synthetase inhibition by bicyclic azetidines” (Nature Communications, 2021):
# How the values were obtained:
# Dd2 = experiment: Whole parasite growth inhibition (Dd2), quoted in peer review file; type: cell-based; conditions: quoted by Reviewer #2 from the submitted manuscript
# HscFRS = HscFRS (Homo sapiens, UniProt Q9Y285); experiment: Surface plasmon resonance binding; conditions: Hs; SPR, 1:1 binding model; read-out: Kd (cFRS)
# Description: (§1) These were carried out on a Biacore T200 instrument (GE Healthcare) at 25 °C. The binding experiments were performed in buffer 10 mM phosphate buffered saline (PBS), pH 7.4, containing 5% dimethyl sulfoxide (DMSO). The flow system was primed with the running buffer before the initiation of the experiment. Both PfcFRS and HscFRS were immobilized to Sensor Chip CM5 by standard amine coupling chemistry using N-hydroxysuccinimide (NHS) and ethyl(dimethylaminopropyl) carbodiimide (EDC) to an immobilization level of approximately 1500 RU. The binding experiments were carried out in a single cycle kinetics mode. BRD1389 was serially diluted in running buffer and injected at a flow rate of 60 μl min^−1 across both surfaces for 60 s and dissociations were set up for 120 s. The data analysis was done using Biacore evaluation T200 Evaluation software (GE Healthcare) and after applying the solvent correction, the data was fitted into the 1:1 binding evaluation method to determine the equilibrium dissociation constants (Kd).
# PfcFRS = target: T1, PfcFRS (Plasmodium falciparum, UniProt Q8I246); experiment: Surface plasmon resonance binding; conditions: Pf; SPR, 1:1 binding model; read-out: Kd (cFRS)
# T1 sequence (Q8I246 1-575): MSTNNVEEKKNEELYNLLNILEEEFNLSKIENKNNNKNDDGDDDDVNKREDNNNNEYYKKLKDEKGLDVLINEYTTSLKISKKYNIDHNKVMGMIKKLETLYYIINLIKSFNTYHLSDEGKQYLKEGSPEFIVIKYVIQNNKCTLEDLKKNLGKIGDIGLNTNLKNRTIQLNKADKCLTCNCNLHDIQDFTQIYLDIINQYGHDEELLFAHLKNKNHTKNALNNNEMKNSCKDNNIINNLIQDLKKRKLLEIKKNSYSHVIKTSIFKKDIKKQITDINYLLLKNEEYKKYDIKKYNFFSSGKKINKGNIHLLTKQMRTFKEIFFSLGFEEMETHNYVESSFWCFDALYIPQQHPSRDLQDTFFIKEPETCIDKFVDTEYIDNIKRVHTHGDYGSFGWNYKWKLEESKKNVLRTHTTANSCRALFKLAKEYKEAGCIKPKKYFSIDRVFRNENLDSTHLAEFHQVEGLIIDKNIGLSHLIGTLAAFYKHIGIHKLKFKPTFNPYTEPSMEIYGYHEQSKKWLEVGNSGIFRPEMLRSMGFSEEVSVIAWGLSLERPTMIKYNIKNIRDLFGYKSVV
# T1 sequence (Q8IIW2 1-623 partner): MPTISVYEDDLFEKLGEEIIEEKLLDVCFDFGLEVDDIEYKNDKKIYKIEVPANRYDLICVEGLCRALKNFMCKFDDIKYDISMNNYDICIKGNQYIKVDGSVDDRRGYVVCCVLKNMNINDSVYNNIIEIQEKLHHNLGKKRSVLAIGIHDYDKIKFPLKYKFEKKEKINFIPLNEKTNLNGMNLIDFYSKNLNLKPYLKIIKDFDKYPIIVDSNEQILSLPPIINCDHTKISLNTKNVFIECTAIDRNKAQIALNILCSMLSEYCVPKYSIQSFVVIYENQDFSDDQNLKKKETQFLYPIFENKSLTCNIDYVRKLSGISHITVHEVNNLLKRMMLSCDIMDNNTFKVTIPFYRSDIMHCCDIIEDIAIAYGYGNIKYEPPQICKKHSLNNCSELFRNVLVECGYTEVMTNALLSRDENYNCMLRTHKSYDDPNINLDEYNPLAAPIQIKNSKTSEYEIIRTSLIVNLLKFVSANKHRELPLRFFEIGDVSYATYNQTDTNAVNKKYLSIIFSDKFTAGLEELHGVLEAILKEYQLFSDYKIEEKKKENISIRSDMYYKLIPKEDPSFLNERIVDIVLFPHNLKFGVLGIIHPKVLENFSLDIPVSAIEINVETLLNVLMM
# Description: as §1
# PvcFRS = target: T2, PvcFRS (Plasmodium vivax, UniProt A5K9S0); experiment: Incubation of PvcFRS with BRD1389 and ATP analogue AMPPNP; type: binding; conditions: PvcFRS with high concentrations of both BRD1389 and AMPPNP
# T2 construct: Full-length PvcFRS was also purified according to the same protocol; vector-encoded tag of pETM11 (own knowledge: N-terminal His6 with TEV site); Ni-NTA purification; made in house; host or cells: E. coli strain B834
# Description: The diarylacetylene moiety of BRD1389 that occupies the L-Phe site is recognized via a bed of β-strand residues Ala541-Trp542-Gly543-Leu544 (Fig. 3b), while its edge phenyl ring is covered by Tyr497 where it provides an aromatic T-shaped π…π interaction at a distance of ~4.2 Å (Fig. 3b). In addition, the diarylacetylene moiety is surrounded by hydrophobic elements of Asn519, Gln457, and Glu459 (Fig. 3b). The urea moiety of BRD1389 is buried in a groove that is composed of Gly506, His508, Glu510, Lys512–513, Leu515, Ile552 and Pro549 (Figs. 3b, e and 4c). The urea/groove interactions are mainly stabilized by hydrophobic contacts, particularly from Pro549 and His508 while residues Val517, Ile483 and Pro549 provide sandwich support to the cyclopropoxy moiety (Figs. 3b and 4c). The urea component of BRD1389 forms hydrogen bonding interactions with main-chain N-atom of Ser545 (Fig. 3a, b). The above sets of extensive interactions position BRD1389 in an ‘L’ shaped conformation wherein its methoxy methyl group is surrounded by socket residues Arg443, Glu445, His451, and Phe455. […] This similarity highlights the importance of the three-dimensional shape and rigidity of the diazabicyclodecane scaffold in pre-orienting the molecular appendages for optimal target engagement. […]
# HscFRS, sequence (Q9NSD9 whole entry): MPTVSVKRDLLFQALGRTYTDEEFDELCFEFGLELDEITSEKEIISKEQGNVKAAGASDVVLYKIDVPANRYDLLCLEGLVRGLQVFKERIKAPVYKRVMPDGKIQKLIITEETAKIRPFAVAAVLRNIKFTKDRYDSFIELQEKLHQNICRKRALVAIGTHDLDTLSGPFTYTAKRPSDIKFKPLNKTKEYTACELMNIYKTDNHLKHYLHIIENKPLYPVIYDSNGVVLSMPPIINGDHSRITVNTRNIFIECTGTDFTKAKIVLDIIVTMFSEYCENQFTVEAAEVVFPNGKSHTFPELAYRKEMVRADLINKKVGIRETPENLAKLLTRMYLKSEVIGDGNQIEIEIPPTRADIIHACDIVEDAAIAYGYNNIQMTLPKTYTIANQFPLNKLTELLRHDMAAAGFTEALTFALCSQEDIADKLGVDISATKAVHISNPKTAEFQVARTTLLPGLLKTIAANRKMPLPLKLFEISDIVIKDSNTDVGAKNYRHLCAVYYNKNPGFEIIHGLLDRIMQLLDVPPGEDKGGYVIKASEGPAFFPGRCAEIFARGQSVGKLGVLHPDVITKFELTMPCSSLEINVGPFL
# HscFRS, sequence (Q9Y285 whole entry): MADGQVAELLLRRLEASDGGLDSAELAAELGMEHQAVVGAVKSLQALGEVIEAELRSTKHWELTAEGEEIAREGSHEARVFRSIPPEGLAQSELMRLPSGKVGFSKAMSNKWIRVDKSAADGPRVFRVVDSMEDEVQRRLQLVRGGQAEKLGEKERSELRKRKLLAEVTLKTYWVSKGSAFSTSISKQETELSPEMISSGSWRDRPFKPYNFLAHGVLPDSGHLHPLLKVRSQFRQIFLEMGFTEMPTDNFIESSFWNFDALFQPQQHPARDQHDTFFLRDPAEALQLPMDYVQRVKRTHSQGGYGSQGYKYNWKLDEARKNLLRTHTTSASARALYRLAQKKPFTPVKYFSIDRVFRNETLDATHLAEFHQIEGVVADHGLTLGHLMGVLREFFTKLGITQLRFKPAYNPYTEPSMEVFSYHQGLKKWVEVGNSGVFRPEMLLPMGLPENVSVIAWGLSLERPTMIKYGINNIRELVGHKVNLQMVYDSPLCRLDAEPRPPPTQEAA
# T2 sequence (A5K464 whole entry): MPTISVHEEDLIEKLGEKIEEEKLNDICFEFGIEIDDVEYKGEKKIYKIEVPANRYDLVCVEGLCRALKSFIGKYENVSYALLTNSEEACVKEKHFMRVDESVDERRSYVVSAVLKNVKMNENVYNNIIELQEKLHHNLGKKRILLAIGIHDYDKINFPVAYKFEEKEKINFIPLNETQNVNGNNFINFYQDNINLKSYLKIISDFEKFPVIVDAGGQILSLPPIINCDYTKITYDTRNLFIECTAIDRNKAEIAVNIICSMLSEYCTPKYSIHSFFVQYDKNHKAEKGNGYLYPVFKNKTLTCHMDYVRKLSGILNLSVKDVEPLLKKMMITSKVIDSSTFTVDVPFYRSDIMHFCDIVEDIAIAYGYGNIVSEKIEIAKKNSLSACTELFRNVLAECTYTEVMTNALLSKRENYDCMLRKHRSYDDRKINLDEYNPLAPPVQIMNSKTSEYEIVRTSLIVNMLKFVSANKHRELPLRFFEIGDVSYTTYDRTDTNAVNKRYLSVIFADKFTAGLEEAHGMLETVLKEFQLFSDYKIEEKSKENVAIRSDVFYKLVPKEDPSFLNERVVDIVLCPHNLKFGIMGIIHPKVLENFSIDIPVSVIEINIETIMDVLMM
# T2 sequence (A5K9S0 whole entry): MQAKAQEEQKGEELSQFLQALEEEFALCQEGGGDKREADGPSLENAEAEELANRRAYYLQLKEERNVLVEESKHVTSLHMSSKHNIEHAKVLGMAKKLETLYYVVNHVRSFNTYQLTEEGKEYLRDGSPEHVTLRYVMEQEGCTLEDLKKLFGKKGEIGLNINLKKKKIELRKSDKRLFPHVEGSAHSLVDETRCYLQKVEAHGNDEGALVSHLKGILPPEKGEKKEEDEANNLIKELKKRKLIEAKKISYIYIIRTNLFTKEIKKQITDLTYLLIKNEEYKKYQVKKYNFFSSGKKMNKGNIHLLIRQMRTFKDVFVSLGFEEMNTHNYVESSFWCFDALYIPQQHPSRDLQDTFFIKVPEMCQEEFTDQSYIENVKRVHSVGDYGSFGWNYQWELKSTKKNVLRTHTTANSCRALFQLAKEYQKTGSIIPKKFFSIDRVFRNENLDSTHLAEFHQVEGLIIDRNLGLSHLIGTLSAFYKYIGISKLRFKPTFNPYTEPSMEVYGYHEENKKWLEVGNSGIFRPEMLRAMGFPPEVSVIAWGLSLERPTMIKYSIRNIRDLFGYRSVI
smiles,measurement,setting,value
COC[C@@H]1[C@H](c2ccc(C#Cc3ccccc3)cc2)[C@@H]2CN(C(=O)Nc3ccc(OC4CC4)cc3)C[C@@H](O)[C@@H](O)CN12 [BRD1389],Dd2 growth inhibitory activity,Dd2,< 1 nM
same,Kd,HscFRS,16 µM
same,Kd,PfcFRS,0.004 µM
same,Binding observed on co-incubation,PvcFRS,observed only binding of BRD1389
